What follows are compounds tested against ROCK2 (Homo sapiens, UniProt O75116) (assay: ROCK2 kinase inhibitor activity test (HTRF)). Conditions: ROCK2 1 nM, substrate 500 nM, ATP 6 uM, 1.5 hours at room temperature, read-out: ROCK2 kinase inhibitor activities (IC50).
Type: biochemical
Method: ROCK2 Kinase Inhibitor Activity Test
1) 4× ROCK2 reaction solution, 4×ATP reaction solution, 4× substrate solution, and 4× compound solution were prepared according to experimental requirements.
2) 2.5 μL of 4× kinase solution and 2.5 μL of diluted 4× test compound solutions with different concentration gradients were added to a 384-well plate. 2 replicate wells were provided for each concentration, and an enzyme solution blank control group and a negative control group (DMSO group) were provided at the same time. Centrifugation was performed at 1000 rpm for 1 minute, and the enzyme and the compounds were mixed. 2.5 μL of 4× substrate solution was added to the 384-well plate, centrifugation was performed at 1000 rpm for 1 minute, 2.5 μL of 4× ATP solution was added to the 384-well plate, centrifugation was performed at 1000 rpm for 1 minute to start the enzyme reaction, and incubation was performed at room temperature for 1.5 hours.
The final concentration of each component of the ROCK2 reaction was: ROCK2: 1 nM, substrate: 500 nM, ATP: 6 uM, and the final concentration range of the test compounds was: 100 nM to 5 pM.
3) 4× Streptavidin-XL-665 detection solution was prepared according to experimental requirements.
4) After the enzyme reaction was completed, 5 ul of 4× Streptavidin-XL-665 detection solution was added to each well of the 384-well plate, and centrifugation was performed at 1000 rpm for 1 minute. 5 μL of 4×STK Antibody-cryptate detection antibody solution was added to each well of the 384-well plate, centrifugation was performed at 1000 rpm for 1 minute, and incubation was performed for 1 hour at room temperature.
5) After antibody incubation was completed, the signal value of each well was measured by the HTRF program on an Envision plate reader.
1) Taking the enzyme solution blank control group as 100% inhibition rate and the negative control group (DMSO group) as 0% inhibition rate, the percentage inhibition rate corresponding to each concentration of the test compound was calculated.
2) In the GraphPad Prism software, a nonlinear regression analysis was performed on the logarithm of the concentrations of the test compounds and the corresponding percentage inhibition rates to obtain the half-inhibitory concentrations (IC50) of the test compounds.
The ROCK2 kinase inhibitor activities (IC50) of the compounds detected by this method are as follows: […]

Chain of ROCK2 (O75116 whole entry): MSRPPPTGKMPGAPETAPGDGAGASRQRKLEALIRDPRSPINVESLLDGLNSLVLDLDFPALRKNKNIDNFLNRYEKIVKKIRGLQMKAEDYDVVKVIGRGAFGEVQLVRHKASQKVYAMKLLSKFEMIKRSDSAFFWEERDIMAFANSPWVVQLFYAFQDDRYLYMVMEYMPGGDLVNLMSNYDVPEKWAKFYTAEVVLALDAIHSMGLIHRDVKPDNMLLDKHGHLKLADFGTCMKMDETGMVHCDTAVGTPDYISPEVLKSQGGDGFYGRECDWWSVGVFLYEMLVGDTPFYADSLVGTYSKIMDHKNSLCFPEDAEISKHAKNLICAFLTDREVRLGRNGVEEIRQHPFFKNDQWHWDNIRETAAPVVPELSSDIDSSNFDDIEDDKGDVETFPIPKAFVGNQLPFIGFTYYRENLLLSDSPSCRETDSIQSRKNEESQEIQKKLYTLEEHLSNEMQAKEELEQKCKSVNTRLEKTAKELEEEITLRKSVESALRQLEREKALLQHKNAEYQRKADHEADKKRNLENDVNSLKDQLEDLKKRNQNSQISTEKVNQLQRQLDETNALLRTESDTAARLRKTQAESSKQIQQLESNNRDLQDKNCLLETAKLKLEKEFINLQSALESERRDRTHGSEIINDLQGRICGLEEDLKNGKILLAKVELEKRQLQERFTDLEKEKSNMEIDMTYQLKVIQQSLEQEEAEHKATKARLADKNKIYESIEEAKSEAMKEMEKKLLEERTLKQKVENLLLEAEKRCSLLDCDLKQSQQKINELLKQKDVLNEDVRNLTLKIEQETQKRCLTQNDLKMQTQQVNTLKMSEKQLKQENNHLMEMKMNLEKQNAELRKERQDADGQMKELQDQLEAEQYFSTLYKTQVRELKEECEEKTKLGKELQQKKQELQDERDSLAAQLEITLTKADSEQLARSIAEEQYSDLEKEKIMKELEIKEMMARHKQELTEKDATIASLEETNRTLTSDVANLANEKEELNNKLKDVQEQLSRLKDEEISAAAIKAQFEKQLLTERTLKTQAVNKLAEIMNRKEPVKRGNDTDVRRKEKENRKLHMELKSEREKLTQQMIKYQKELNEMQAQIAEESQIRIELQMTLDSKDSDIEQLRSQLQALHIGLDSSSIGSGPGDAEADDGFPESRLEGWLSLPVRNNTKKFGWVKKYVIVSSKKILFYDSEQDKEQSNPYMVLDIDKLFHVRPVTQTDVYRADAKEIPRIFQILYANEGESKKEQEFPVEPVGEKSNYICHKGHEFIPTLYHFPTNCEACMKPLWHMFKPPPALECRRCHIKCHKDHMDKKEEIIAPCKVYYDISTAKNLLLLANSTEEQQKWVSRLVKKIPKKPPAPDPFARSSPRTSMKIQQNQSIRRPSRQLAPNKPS

With `NCC(C(=O)Nc1cc2ccncc2s1)c1ccc(OC(CO[N+](=O)[O-])CO[N+](=O)[O-])cc1` (stereo not drawn) [Example 14, 2-(4-(3-amino-1-oxo-1-(thieno[2,3-c]pyridin-2-ylamino)propan-2-yl)phenoxy)propane-1,3-dinitrate] as the compound, how does the IC50 read?
The IC50 was 77.3 nM.

Which IC50 does the source give for `Cc1ccc(CCO[N+](=O)[O-])cc1C(=O)OCc1ccc([C@@H](CN)C(=O)Nc2cc3ccncc3s2)cc1` [Example 18] here?
Its IC50 is 4.62 nM.

Which IC50 does the source give for `NC[C@@H](C(=O)Nc1cc2ccncc2s1)c1ccc(COC(=O)CC2(CO[N+](=O)[O-])CC2)cc1` [Example 29, (S)-4-(3-amino-1-oxy-1-(thieno[2,3-c]pyridin-2-ylamino)prop-2-yl)benzyl 2-(1-((nitrooxy)methyl)cyclopropyl acetate] here?
Its IC50 is 2.74 nM.

For `CC(CO[N+](=O)[O-])(CO[N+](=O)[O-])C(=O)OCc1ccc([C@@H](CN)C(=O)Nc2cc3ccncc3s2)cc1` [Example 26, (S)-4-(3-amino-1-oxo-1-(thieno[2,3-c]pyridin-2-ylamino)prop-2-yl)benzyl 2-methyl-3-(nitrooxy)-2-((nitrooxy)methyl)propionate], which IC50 is on record?
Its IC50 is 9.9 nM.

For `NCC(C(=O)Nc1cc2ccncc2s1)c1ccc(CCO[N+](=O)[O-])cc1` (stereo not drawn) [Example 3], which IC50 is on record?
Its IC50 is 10.8 nM.

With `NC[C@@H](C(=O)Nc1cc2ccncc2s1)c1ccc(COC(=O)NCCO[N+](=O)[O-])cc1` [Example 24, (S)-4-(3-amino-1-oxy-1-(thieno[2,3-c]pyridin-2-ylamino)prop-2-yl)benzyl(2-(nitrooxy)ethyl)carbamate] as the compound, how does the IC50 read?
The IC50 was 0.45 nM.

How did the IC50 turn out when `NC[C@@H](C(=O)Nc1cc2ccncc2s1)c1ccc(COC(=O)C2CC(CO[N+](=O)[O-])C2)cc1` (stereo partly drawn) [Example 23, (S)-4-(3-amino-1-oxy-1-(thieno[2,3-c]pyridin-2-ylamino)propan-2-yl)benzyl 3-((nitrooxy)methyl)cyclobutane-1-carboxylate] was run?
The IC50 was 1.13 nM.

For `NCC(C(=O)Nc1cc2ccncc2s1)c1ccc(C(CO[N+](=O)[O-])O[N+](=O)[O-])cc1` (stereo not drawn) [Example 5, 1-(4-(3-amino-1-oxo-1-(thieno[2,3-c]pyridin-2-ylamino)prop-2-yl)phenyl)ethane-1,2-dinitrate], which IC50 is on record?
Its IC50 is 19.2 nM.

How did the IC50 turn out when `NC[C@@H](C(=O)Nc1cc2ccncc2s1)c1ccc(COC(=O)c2cccc(CO[N+](=O)[O-])c2)cc1` [Example 21, (S)-4-(3-amino-1-oxo-1-(thieno[2,3-c]pyridin-2-ylamino)prop-2-yl)benzyl 3-((nitrooxy)methyl)benzoate] was run?
Its IC50 is 1.23 nM.

Which IC50 does the source give for `NC[C@@H](C(=O)Nc1cc2ccncc2s1)c1ccc(COC(=O)C2CC(CO[N+](=O)[O-])(CO[N+](=O)[O-])C2)cc1` [Example 36, (S)-4-(3-amino-1-oxy-1-(thieno[2,3-c]pyridin-2-ylamino)prop-2-yl)benzyl 3,3-bis((nitrooxy)methyl)cyclobutane-1-carboxylate] here?
Its IC50 is 32.5 nM.

`NC[C@@H](C(=O)Nc1cc2ccncc2s1)c1ccc(COC(=O)C2CCC(O[N+](=O)[O-])CC2)cc1` (stereo partly drawn) [Example 15, (S)-4-(3-amino-1-oxy-1-(thieno[2,3-c]pyridin-2-ylamino)prop-2-yl)benzyl 4-(nitrooxy)cyclohexane-1-carboxylic acid] was tested. Which IC50 did it give?
The IC50 was 1.63 nM.

For `NC[C@@H](C(=O)Nc1cc2ccncc2s1)c1ccc(COC(=O)c2ccc(CO[N+](=O)[O-])cc2)cc1` [Example 22, (S)-4-(3-amino-1-oxo-1-(thieno[2,3-c]pyridin-2-ylamino)prop-2-yl)benzyl 4-((nitrooxy)methyl)benzoate], which IC50 is on record?
Its IC50 is 1.6 nM.

For `NC[C@@H](C(=O)Nc1cc2ccncc2s1)c1ccc(COC(=O)C2CCC(CO[N+](=O)[O-])CC2)cc1` (stereo partly drawn) [Example 38, (1r,4S)-4-((S)-3-amino-1-oxy-1-(thieno[2,3-c]pyridin-2-ylamino)propan-2-yl)benzyl 4-((nitrooxy)methyl)cyclohexanecarboxylic acid], which IC50 is on record?
The IC50 was 19.7 nM.

“4-((S)-3-amino-1-oxy-1-(thieno[2,3-c]pyridin-2-ylamino)prop-2-yl)benzyl(1s,4R)-4-((nitrooxy)methyl)cyclohexane-1-carboxylic acid [Example 27]” was tested. Which IC50 did it give?
The IC50 was 4.62 nM.

How did the IC50 turn out when `NC[C@@H](C(=O)Nc1cc2ccncc2s1)c1ccc(COC(=O)c2ccc(CCO[N+](=O)[O-])cc2)cc1` [Example 16, (S)-4-(3-amino-1-oxy-1-(thieno[2,3-c]pyridin-2-ylamino)prop-2-yl)benzyl 4-(2-(nitrooxy)ethyl)benzoate] was run?
Its IC50 is 1.86 nM.

`NC[C@@H](C(=O)Nc1cc2ccncc2s1)c1ccc(COC(=O)[C@@H]2CCCN2CCO[N+](=O)[O-])cc1` [Example 39] was tested. Which IC50 did it give?
The IC50 was 29.2 nM.

`CN(C)C[C@@H](C(=O)Nc1cc2ccncc2s1)c1ccc(COC(=O)C(C)(CO[N+](=O)[O-])CO[N+](=O)[O-])cc1` [Example 40, (S)-4-(3-(dimethylamino)-1-oxo-1-(thieno[2,3-c]pyridin-2-ylamino)propan-2-yl)benzyl 2-methyl-3-(nitrooxy)-2-((nitrooxy)methyl)propionate] was tested. Which IC50 did it give?
Its IC50 is 2.05 nM.

Which IC50 does the source give for `NCC(C(=O)Nc1ccc2cnccc2c1)c1ccc(CO[N+](=O)[O-])cc1` (stereo not drawn) [Example 2, (3-amino-1-(isoquinolin-6-ylamino)-1-oxoprop-2-yl)benzyl nitrate] here?
The IC50 was 5.59 nM.

`NC[C@@H](C(=O)Nc1cc2ccncc2s1)c1ccc(COC(=O)[C@H]2C[C@H](O[N+](=O)[O-])C2)cc1` [Example 25, 4-((S)-3-amino-1-oxo-1-(thieno[2,3-c]pyridin-2-ylamino)propan-2-yl)benzyl (1r,3S)-3-(nitrooxy)cyclobutane-1-carboxylate] was tested. Which IC50 did it give?
The IC50 was 1.78 nM.

For `NC[C@@H](C(=O)Nc1cc2ccncc2s1)c1ccc(COC(=O)[C@H]2C[C@H](CO[N+](=O)[O-])C2)cc1` [Example 35, (1R,3S)-4-((S)-3-amino-1-oxy-1-(thieno[2,3-c]pyridin-2-ylamino)propan-2-yl)benzyl 3-((nitrooxy)methyl)cyclobutane-1-carboxylate], which IC50 is on record?
The IC50 was 6.5 nM.

How did the IC50 turn out when `NC[C@@H](C(=O)Nc1ccc2cnsc2c1)c1ccc(CO[N+](=O)[O-])cc1` [Example 4, (S)-4-(3-amino-1-(benzo[d]isothiazol-6-ylamino)-1-oxoprop-2-yl)benzyl nitrate] was run?
The IC50 was 1.78 nM.

For `NC[C@@H](C(=O)Nc1cc2ccncc2s1)c1ccc(COC(=O)[C@H]2CC[C@@H](O[N+](=O)[O-])CC2)cc1` [Example 19, 4-((S)-3-amino-1-oxy-1-(thieno[2,3-c]pyridin-2-ylamino)prop-2-yl)benzyl(1s,4R)-4-(nitrooxy)cyclohexane-1-carboxylate], which IC50 is on record?
The IC50 was 1.33 nM.

How did the IC50 turn out when `CC(C)(CCCO[N+](=O)[O-])C(=O)OCc1ccc([C@@H](CN)C(=O)Nc2cc3ccncc3s2)cc1` [Example 30, (S)-4-(3-amino-1-oxy-1-(thieno[2,3-c]pyridin-2-ylamino)prop-2-yl)benzyl 2,2-dimethyl-5-(nitrooxy)valerate] was run?
Its IC50 is 16.5 nM.

How did the IC50 turn out when `NC[C@@H](C(=O)Nc1cc2ccncc2s1)c1ccc(COC(=O)CCCCCO[N+](=O)[O-])cc1` [Example 31, (S)-4-(3-amino-1-oxy-1-(thieno[2,3-c]pyridin-2-ylamino)propan-2-yl)benzyl 6-(nitrooxy)hexanoate] was run?
Its IC50 is 1.58 nM.

How did the IC50 turn out when `NC[C@@H](C(=O)Nc1cc2ccncc2s1)c1ccc(COC(=O)C2(CO[N+](=O)[O-])CC2)cc1` [Example 32, (S)-4-(3-amino-1-oxy-1-(thieno[2,3-c]pyridin-2-ylamino)propan-2-yl)benzyl 1-((nitrooxy)methyl)cyclopropane carboxylate] was run?
Its IC50 is 3.11 nM.

For `NC[C@@H](C(=O)Nc1cc2ccncc2s1)c1ccc(COC(=O)[C@H]2C[C@@H](CO[N+](=O)[O-])C2)cc1` [Example 34, (1S,3R)-4-((S)-3-amino-1-oxy-1-(thieno[2,3-c]pyridin-2-ylamino)propan-2-yl)benzyl 3-((nitrooxy)methyl)cyclobutane-1-carboxylate], which IC50 is on record?
The IC50 was 1.04 nM.

How did the IC50 turn out when `NC[C@@H](C(=O)Nc1cc2ccncc2s1)c1ccc(COC(=O)[C@H]2CC[C@H](O[N+](=O)[O-])CC2)cc1` [Example 20, 4-((S)-3-amino-1-oxy-1-(thieno[2,3-c]pyridin-2-ylamino)prop-2-yl)benzyl(1r,4S)-4-(nitrooxy)cyclohexane-1-carboxylate] was run?
Its IC50 is 1.43 nM.

`NC[C@@H](C(=O)Nc1cc2ccncc2s1)c1ccc(COC(=O)C2C[C@@H](O[N+](=O)[O-])[C@H](O[N+](=O)[O-])C2)cc1` [Example 37, (3R,4R)-4-((S)-3-amino-1-oxy-1-(thieno[2,3-c]pyridin-2-ylamino)propan-2-yl)benzyl 3,4-bis(nitrooxy)cyclopentane carboxylate] was tested. Which IC50 did it give?
Its IC50 is 1.43 nM.

With `Cc1cc(CCO[N+](=O)[O-])ccc1C(=O)OCc1ccc([C@@H](CN)C(=O)Nc2cc3ccncc3s2)cc1` [Example 17] as the compound, how does the IC50 read?
The IC50 was 5.44 nM.

Which IC50 does the source give for `NC[C@@H](C(=O)Nc1cc2ccncc2s1)c1ccc(COC(=O)C2CC(O[N+](=O)[O-])C2)cc1` (stereo partly drawn) [Example 6] here?
Its IC50 is 1.3 nM.

From patent US20220332726A1, “NITROXIDE DERIVATIVE OF ROCK KINASE INHIBITOR” (VIVAVISION (SHANGHAI) LTD, priority 2020, published 2022)
